# From patent US20150010474A1, “Compounds And Methods For Selective Imaging And/Or Ablation” (Auckland Uniservices Limited, priority 2011, published 2015)
# Key:
# [1] = target: T1, CO-Frp (V.h) (Vibrio harveyi, UniProt Q56691); test: Initial rate of metabolism by purified recombinant bacterial nitroreductase (NADPH consumption, UV/Vis); assay type: biochemical; details: compound 500 μM, NADPH 200 μM, 10 mM Tris-Cl pH 7.0; μmol NADPH consumed per mg enzyme per minute
# T1 construct: made in house
# T1 sequence (Q56691 whole entry): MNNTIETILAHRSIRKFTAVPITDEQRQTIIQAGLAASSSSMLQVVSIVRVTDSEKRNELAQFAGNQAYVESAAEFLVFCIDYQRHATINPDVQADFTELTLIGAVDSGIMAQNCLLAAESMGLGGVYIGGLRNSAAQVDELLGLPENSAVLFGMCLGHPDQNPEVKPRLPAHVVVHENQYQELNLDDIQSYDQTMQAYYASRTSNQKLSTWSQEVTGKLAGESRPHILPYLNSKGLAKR
# Description: (§1) The relative initial rates of reductive metabolism of the nitro moiety of test compounds by bacterial nitroreductase's can be measured experimentally by incubating the test compound at near-saturating concentration (determined empirically) with the purified recombinant bacterial nitroreductase enzymes in the presence of NADPH co-factor. UV/Vis spectroscopy is used to measure consumption of the co-factor, indicating metabolism of the test compound by the nitroreductase.
# (§2) Compounds 67, 93 and 97 (500 μM) were added to NADPH (200 μM) in 10 mM Tris-Cl pH 7.0. Reactions were initiated by enzyme addition (between 5 and 20 μg per reaction). Rates represent μmol of NADPH consumed per mg enzyme added per minute.
# [2] = target: T2, NfrA (B.s) (Bacillus subtilis, UniProt P39605); test: as above; assay type: biochemical; details: compound 500 μM, NADPH 200 μM, 10 mM Tris-Cl pH 7.0; μmol NADPH consumed per mg enzyme per minute
# T2 construct: made in house
# T2 sequence (P39605 whole entry): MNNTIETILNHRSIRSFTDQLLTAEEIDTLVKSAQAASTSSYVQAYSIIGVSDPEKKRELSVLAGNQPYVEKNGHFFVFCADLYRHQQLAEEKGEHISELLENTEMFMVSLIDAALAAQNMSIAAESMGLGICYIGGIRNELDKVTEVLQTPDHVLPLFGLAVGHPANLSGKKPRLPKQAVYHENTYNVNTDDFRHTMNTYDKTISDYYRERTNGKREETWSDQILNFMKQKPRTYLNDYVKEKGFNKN
# Description: as §1, §2
# [3] = target: T3, NfsA (E.c) (Escherichia coli, UniProt P17117); test: as above; assay type: biochemical; details: compound 500 μM, NADPH 200 μM, 10 mM Tris-Cl pH 7.0; μmol NADPH consumed per mg enzyme per minute
# T3 construct: made in house
# T3 sequence (P17117 whole entry): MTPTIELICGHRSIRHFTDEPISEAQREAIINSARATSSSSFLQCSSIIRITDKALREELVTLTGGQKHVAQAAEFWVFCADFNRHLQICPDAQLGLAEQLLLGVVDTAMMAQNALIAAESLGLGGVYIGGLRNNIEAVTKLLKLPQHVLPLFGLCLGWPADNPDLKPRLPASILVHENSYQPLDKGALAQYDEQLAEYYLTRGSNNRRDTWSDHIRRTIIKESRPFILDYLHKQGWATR
# Description: as §1, §2
# [4] = system: HCT116 wild type (WT) cancer cells; test: Inhibition of cell proliferation, low cell density IC50 assay; assay type: cell-based; details: Homo sapiens, HCT-116; 4 hour drug exposure, washing and regrowth for 5 days
# Description: (§3) IC50 values were determined as the concentration of prodrug required to inhibit cell growth by 50% of untreated controls following 4 hour drug exposure, with washing and regrowth for 5 days. WT:NfsA ratios were determined as the WT IC50/NfsA IC50.
# [5] = system: HCT116 cells overexpressing the nitroreductase NfsA from E. coli; test: as above; assay type: cell-based, human; details: for IC50: Homo sapiens, HCT-116, 4 hour drug exposure, washing and regrowth for 5 days; for WT:NfsA: WT IC50/NfsA IC50
# Description: as §3
# [6] = system: NTR over-expressing E. coli SOS-R2; test: Growth Inhibition assay in 58-membered NTR over-expression library; assay type: cell-based, Escherichia coli; details: 4 h incubation; 400 μM compound 67, 130 μM compound 93, 800 μM compound 97
# [7] = system: HCT-116 cells stably expressing E. coli NfsA; test: Flow cytometry of metabolism and cellular retention (EF5 antibody); assay type: cell-based, human; details: 20 μM; for Metabolism and cellular retention by FACS, HCT-116 NfsA cells (FIG. 3): 2 hours, oxic conditions (21% O2, 5% CO2)
# Description: FIG. 3 illustrates the results of flow cytometry analysis of HCT-116 cells stably expressing E. coli NfsA relative to HCT-116 wild-type cells after in vitro exposure to 20 μM of compounds 15, 93 and 67 for 2 hours. 1×10^6 cells were incubated with test compounds under oxic conditions. Samples were fixed and stained with EF5 antibody Alexa 488 ELK3.51 at 100 μg/ml. Samples were then analysed on a Becton Dickinson FACscan flow cytometer.
# FIG. 4 illustrates the results of a second independent flow cytometry analysis of compound 15 and 93 metabolism and binding in wild-type HCT-116 cells, HCT-116 cells stably over-expressing cytochrome P450 reductase (CYPOR), a human one-electron reductase known to metabolise nitroheterocyclic and nitroaromatic compounds, or HCT-116 cells stably expressing the bacterial nitroreductase E. coli NfsA. 1×10^6HCT-116 cells were seeded in 6 well plates underaerobic conditions (21% O2, 5% CO2). After 2 h incubation, drug free control (wild-type HCT-116, foreground), 20 μM (wild-type HCT-116, second plot), 100 μM (wild-type HCT-116, third plot), 20 μM (HCT-116-CYPOR, forth plot), 100 μM (HCT-116-CYPOR, fifth plot) or 20 μM (HCT-116-NfsA, sixth plot) of compound 15 or 93 was added. After 2 h incubation cells were harvested and fixed with paraformaldehyde before being incubated overnight with 100 μl of 75 μg/ml EF5 CY5 conjugated antibody. Samples were then analysed on a Becton Dickinson FACscan flow cytometer.
# [8] = system: human lung tumour xenograft NCI-H1299 harbouring approximately 5% NfsA-positive cells; test: In vivo binding by immunohistochemistry in mixed NfsA/WT xenograft; parameters: species or system NIH-III nude mice; details: 60 mg/kg i.p., tumours excised after 60 minutes; ELK3-51-CY5 antibody
# Description: FIG. 8 illustrates the in vivo binding of compounds 15, 93 and 67 in the human lung tumour xenograft NCI-H1299 harbouring approximately 5% NfsA-positive cells. […] Mixed NfsA/WT NCI-H1299 cells were inoculated subcutaneously onto the flank of NIH-III nude mice. When the mixed tumours reached approximately 500 mm^3, mice were dosed i.p. with 60 mg/kg of either compound 15, compound 93 or compound 67. After 60 minutes the tumours were excised, and fixed in formalin before being embedded in paraffin wax. Tumour section were cut (5 microns) and mounted onto glass slides for immunodetection of bound adducts of compound 15, compound 93 or compound 67 using the monoclonal antibody ELK3-51 directly conjugated to the fluorophore CY5 (Ex/Em 650/670 nm). Fluorescent microscopy was employed to visualise the presence of cellular adducts of each test compound present in individual tumour cells. Image gain was reduced due to intense fluorescent signal indicating extensive adduct binding. Images were acquired on a Zeiss LSM 710 confocal microscope (×20 magnification).
# [9] = system: human solid tumour xenograft NCI-H1299 (WT); test: Hypoxia-dependent binding by fluorescent immunohistochemistry with pimonidazole co-staining; assay type: in vivo, NIH-III nude mice; details: 60 mg/kg i.p., 60 minutes after 60 mg/kg pimonidazole; tumours excised after 120 minutes
# Description: FIG. 10 illustrates the absence of hypoxic-dependent binding of compound 67 and compound 93 by fluorescent immune-histochemistry in the human solid tumour xenograft NCI-H1299, with reference to hypoxia staining by compound 15 and pimonidazole (Hypoxyprobe™) as internal standards (positive controls). NCI-H1299 WT tumours were inoculated subcutaneously onto the flank of NIH-Ill nude mice. When the mixed tumours reached approximately 800 mm^3, mice were dosed i.p. with 60 mg/kg of pimonidazole, and 60 minutes later dosed with either 60 mg/kg of compound 15, or 60 mg/kg of compound 67, or 60 mg/kg of compound 93. After 120 minutes the tumours were excised, and fixed in formalin before being embedded in paraffin wax. Tumour section were cut (5 microns) and mounted onto glass slides for immunodetection of bound adducts of compounds. Immunofluorescent microscopy was performed using a monoclonal antibody (Mab1, hybridoma clone 4.3.11.3) conjugated to Alexa-488 (Ex/Em 499/519; green) for the detection of pimonidazole adducts, and monoclonal antibody ELK3-51 directly conjugated to the fluorophore CY5 (Ex/Em 650/670 nm; red) for detection of adducts formed by compound 15 or compound 67 or compound 93. The overlap of pimonidazole with any one of these markers appears as yellow. Images were acquired on a Zeiss LSM 710 confocal microscope (×20 magnification).
compound,measurement,setting,value
"Cc1ncc([N+](=O)[O-])n1CC(=O)NCC(F)(F)C(F)(F)F [Compound 67, 2-(2-methyl-5-nitro-1H-imidazol-1-yl)-N-(2,2,3,3,3-pentafluoropropyl)acetamide]",Rate of metabolism by CO-Frp (V.h),[1],1.1 µmol/min/mg
same,Rate of metabolism by NfrA (B.s),[2],1.7 µmol/min/mg
same,Rate of metabolism by NfsA (E.c),[3],2.7 µmol/min/mg
same,IC50,[4],6310 µM
same,IC50,[5],19 µM
same,WT:NfsA,[5],332
same,Reductive metabolism at the nitro moiety by NTR library members (NfsA and NfsB families),[6],readily reductively metabolised at the nitro moiety by the majority of NfsA family members along with a subset of the NfsB family
same,"Metabolism and cellular retention by FACS, HCT-116 NfsA cells (FIG. 3)",[7],excellent substrates for E. coli NfsA
same,Detection of NfsA expressing cells after in vivo binding (FIG. 8),[8],readily detected by immunohistochemistry with single cell resolution
same,"Hypoxia-dependent binding in NCI-H1299 WT tumours, immunofluorescent microscopy (FIG. 10)",[9],not detected in the pimonidazole positive hypoxic regions of the NCI-H1299 tumours
"O=C(Cn1cnc([N+](=O)[O-])c1)NCC(F)(F)C(F)(F)F [Compound 93, 2-(4-nitro-1H-imidazol-1-yl)-N-(2,2,3,3,3-pentafluoropropyl)acetamide]",Rate of metabolism by CO-Frp (V.h),[1],12.2 µmol/min/mg
same,Rate of metabolism by NfrA (B.s),[2],7.5 µmol/min/mg
same,Rate of metabolism by NfsA (E.c),[3],7.6 µmol/min/mg
same,IC50,[4],1460 µM
same,IC50,[5],14.5 µM
same,WT:NfsA,[5],100
same,Reductive metabolism at the nitro moiety by NTR library members (NfsA and NfsB families),[6],selectively reductively metabolised at the nitro moiety by the NfsA family
same,"Metabolism and cellular retention by FACS, HCT-116 NfsA cells (FIG. 4)","[7]; 2 h, aerobic conditions",excellent substrates for E. coli NfsA
same,"Metabolism and cellular retention by FACS, HCT-116 NfsA cells (FIG. 3)",[7],excellent substrates for E. coli NfsA
same,Detection of NfsA expressing cells after in vivo binding (FIG. 8),[8],readily detected by immunohistochemistry with single cell resolution
same,"Hypoxia-dependent binding in NCI-H1299 WT tumours, immunofluorescent microscopy (FIG. 10)",[9],not detected in the pimonidazole positive hypoxic regions of the NCI-H1299 tumours
